This note sets out measurements from US11958842B2, “Substituted phenazines and methods of treating cancer and bacterial diseases” (Adjutec Pharma AS, priority 2016, dated 2024).

Each structure is given as a SMILES string. Converted amounts (≈) assume the structure as drawn. Where two headings read alike, the source gives them in different places.

The test system of data set [1] is IPC-81 rat AML cells. Nature of the data set: Anti-AML activity, WST-1 viability (Example 72). Conditions: IPC81, IPC-81 cells. Type of data set: cell-based. The protocol: (§1) Dry powder of analogs were dissolved in DMSO. IPC-18 rat AML cells (Lacaze, N. et al. Leuk. Res. 1983, 7, 145.) were cultured in DMEM medium (Sigma-Aldrich, St. Louis, Mo., USA) supplemented with 10% horse serum (Invitrogen, Carlsbad, Calif., USA), and antibiotics (50 U/mL of penicillin and 0.05 mg/mL streptomycin). Molm13 (Matsuo, Y. et al. Leukemia 1997, 11, 1469.) cells were cultured in RPMI supplemented with antibiotics (50 U/mL of penicillin and 0.05 mg/mL streptomycin) and 10% fetal bovine serum (FBS, Invitrogen, Carlsbad, Calif.) and kept in exponential growth before the experiments. Dilution series of iodinin analogs were added to medium and cell suspension added to reach a final cell concentration of 150 000 cells/ml in 0.1 mL in a 96 well tissue culture plate. […] The cells were incubated with the iodinin analogs for 22 h before WST-1 was added according to the manufacturers protocol, and the cells incubated further in 2 h. Mitochondrial conversion of WST-1 to its colored metabolite was measured by a plate reader at 450 nm, with 620 nm as the reference wavelength. The cells were next fixed by adding 4% buffered formaldehyde (PBS, pH 7.4, supplemented with 0.01 mg/mL Hoechst 33342 for nuclear visualization) to the cell suspension at 1:1 (v/v) ratio (final concentration of formaldehyde:[…]). The cells' nuclear and surface morphology were examined microscopically and results compared with the WST-1 viability assay. The results given in Table I are based on WST-1 data.
In general terms: Tetrazolium dyes change colour on reduction, which living cells bring about.

The test system of data set [2] is Molm13 cells. Nature of the data set: Anti-AML activity, WST-1 viability (Example 72). The class given is cell-based. Conditions: Homo sapiens. The protocol:
as §1

For data set [3], the system named is vancomycin-resistant E. faecium vanA A1-22. Nature of the data set: Microbroth dilution MIC. Conditions: compound alone. Type of data set: cell-based. The protocol:
(§2) Day 1: • Plate bacterial strain(s) on appropriate media: • Gram-negative bacteria with ESBLs or carbapenemases: green agar plates with 100 mg/L ampicillin • Gram-negative bacteria without β-lactamases: green agar plates • Gram-positive bacteria (Staphylococci and Enterococci): blood agar plates • Incubate o.n. at 37° C.
(§3) Prepare the Bacterial Inoculum: • Prepare a 0.5 McFarland suspension of bacteria in 0.85% NaCl. (Should be used within 15 min of preparation). • Dilute the 0.5 McFarland suspension 1:100 into MH broth.
(§4) Check the inoculum by diluting the prepared bacterial suspension 1:100 (10 μl bacterial suspension+990 μl 0.85% NaCl). Plate 10 μl of the dilution on MH agar plates (×2). Incubate o.n. at 37° C., count the colonies and calculate the final CFU/ml inoculum in the plate by multiplying the average number of colonies with 10000 and divide by 2. The final inoculum should be between 3-7×10^5 CFU/ml. • Add 50 μl of the prepared bacterial suspension to each well in the microtiter plate except negative growth control.
(§5) Preparation of Compounds/Antibiotics • Calculate the desired concentration-range and volume of the compounds/antibiotics in the assay. For antibiotics this will depend on the MIC to meropenem of the bacterial strains to be tested. Dilute the stock solution in MH broth. Make subsequent 2-fold dilutions in MH broth of the desired concentrations if a concentration range is to be tested (remember the extra dilution factor in the assay plate). Always include extra volume for pipetting. Take into consideration stock solutions that are made in buffers that have an effect on bacterial growth (e.g. DMSO).
(§6) This experimental design was used for the results in Tables 4 and 5 below. In Table 4, inhibitor concentration dependency on the MIC of meropenem was studied.
(In general: In broth dilution the organism is exposed to a series of concentrations in liquid medium.)

Data set [4] concerns methicillin-resistant S. aureus MRSA A4-37. Nature of the data set: Microbroth dilution MIC. Type of data set: cell-based. The following applies: compound alone. The protocol:
as §2, §3, §4, §5, §6

The subject of data set [5] is hepG2. Nature of the data set: Cytotoxicity (Example 73, Table 2). The class given is cell-based. Conditions: Homo sapiens, read-out: EC50 (μM) hepG2.
The subject of data set [6] is normal rat kidney epithelial (NRK) cells. Nature of the data set: Cytotoxicity, WST-1 and nuclear morphology (Example 73). Type of data set: cell-based. Conditions: Rattus norvegicus. An outline of the steps: (§7)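 MOLM-13 (RPMI/FBS), NRK and H9c2 (DMEM/10% FBS) cells under 2% or 20% O2 at 37° C were exposed to analogues for 24 h (≤1% DMSO). Viability was read by WST-1, and cell death by Hoechst 33342 nuclear morphology; EC50 came from four-parameter regression.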

For data set [7], the system named is rat cardiomyoblast (H9c2) cells. The description is as above. The class given is cell-based. Conditions: H9c2, 19% O2, 24 hours of incubation, read-out: EC50 (μM) H9c2 19% O2. An outline of the steps:
as §7

Data set [8] relates to human acute myeloid leukemia cell line MOLM-13. The data set is described as above. Type of data set: cell-based. An outline of the steps:
as §7

Data set [9] is described as follows: Parallel artificial membrane permeability assay (PAMPA). The following applies: PAMPA, 50 μM in PBS, room temperature, five hours. The protocol:
The Corning Gentest™ pre-Coated parallel artificial membrane permeability assay PAMPA Plate System was from Cording Discovery Labware (Bedford, USA). The compounds were tested in room temperature at 50 μM using PBS as buffer. A total of 300 μl of the compound solution was added to each well of the donor plate, and 200 μl of PBS was added to the receiver filter plate. After incubation for five hours, 50 μl of the donor or acceptor well were injected into a reversed phase HPLC column (Kromasil 100-5 C18 150-4.6 mm, Akzo Nobel, Sweden) connected to a Merck-Hitachi LaChrome HPLC-system (VWR, WestChester, USA) with a L-7455 diode array detector. Mobile phase A was 0.05% aqueous TFA, and mobile phase B was acetonitrile. The flow rate was 1.6 ml/min and compounds eluted between 1 and 4.5 minutes was eluted during a 6.5 min gradient from 90:10% mobile phase A:B to 0:100% mobile phase A:B. The ratio of the compound concentrations in the donor and acceptor compartment was calculated after integration of the peaks at 285 nm. Peff was calculated as described in [Bennion B J, Be N A, McNerney M W, Lao V, Carlson E M, Valdez C A, et al. Predicting a Drug's Membrane Permeability: A Computational Model Validated With in Vitro Permeability Assay Data. The journal of physical chemistry B. 2017; 121(20):5228-37.]. Membrane permeability were classified by the range defined by Bennion et al., allowing for us to divide the compounds into four groups, compounds with high permeability (LogPeff>−5.33), intermediate permeability (LogPeff>−5.66 and <−5.33), low permeability (LogPeff>−6.14 and <−5.66) impermeable (LogPeff<−6.14).
(The PAMPA barrier holds no transporters, so it reflects passive diffusion.)

Where [10] appears, read: Molm 13 cells, 2% O2, 24 h of incubation, WST-1, read-out: Molm 13 IC50 2% O2.
[11] abbreviates: Molm 13 cells, 20% O2, 24 h of incubation, WST-1, read-out: Molm 13 IC50 20% O2.
The mark [12] stands for this setting: 2% O2, 24 hours of incubation, read-out: EC50 (μM) NRK 2% O2.
Where [13] appears, read: 19% O2, 24 hours of incubation, read-out: EC50 (μM) NRK 19% O2.
The mark [14] stands for this setting: Homo sapiens, MOLM-13, 2% O2, 24 hours of incubation, read-out: EC50 (μM) MOLM-13 2% O2.
Setting [15] is: Homo sapiens, MOLM-13, 19% O2, 24 hours of incubation, read-out: EC50 (μM) MOLM-13 19% O2.
[16] abbreviates: 24 h, read-out: EC50 (μM) NRK 2% O2, NRK, 2% O2, 24 hours of incubation.
Where [17] appears, read: 24 h, read-out: EC50 (μM) NRK 19% O2, NRK, 19% O2, 24 hours of incubation.
Where [18] appears, read: MOLM-13, 2% O2, 24 hours of incubation, read-out: EC50 (μM) MOLM-13 2% O2.
The mark [19] stands for this setting: MOLM-13, 19% O2, 24 hours of incubation, read-out: EC50 (μM) MOLM-13 19% O2.
Setting [20] is: MOLM-13, 24 h, read-out: Molm 13 IC50 20% O2.

Turning to `COc1cccc2c1[n+]([O-])c1cccc(OC(C)=O)c1[n+]2[O-]` [Example 5e, 1-Acetoxy-6-methoxyphenazine 5,10-dioxide], the 50% inhibitory concentration (IC50) – broadly, the point on the concentration scale where inhibition reaches its midpoint – in [1] (2% O2, 24 h of incubation, WST-1, read-out: IPC-81 IC50 2% O2) was determined as 1700 nM; in data set [1] (20% O2, 24 h of incubation, WST-1, read-out: IPC-81 IC50 20% O2), 1800 nM; in data set [2] (setting [10]), 1450 nM; in data set [2] (setting [11]), 1500 nM.
In [3], `CCOC(=O)COc1cccc2c1[n+]([O-])c1cc(Br)c(Br)cc1[n+]2[O-]` [Example 6d, 7,8-dibromo-1-(2-ethoxy-2-oxoethoxy)phenazine 5,10-dioxide] showed an MIC A1-22 E. faecium vanA of 8 µg/mL (≈ 16.9 µM). Moreover, in data set [4], the MIC A4-37 S. aureus MRSA was 16 µg/mL (≈ 33.9 µM). The concentration giving a half-maximal response (EC50) – broadly, the midpoint of the concentration-response curve – was 65 µM in [5] (hepG2, 24 hours of incubation); 9.7 ± 2.4 µM in [6] (setting [12]); 10 ± 0.7 µM in [6] (setting [13]); 3.3 ± 0.5 µM in data set [7] (Rattus norvegicus); 1.6 ± 0.09 µM in data set [8] (setting [14]); 2.4 ± 0.03 µM in data set [8] (setting [15]).
The compound `COc1cccc2c1[n+]([O-])c1ccccc1[n+]2[O-]` [Example 18, 1-methoxyphenazine 5,10-dioxide] had an MIC A1-22 E. faecium vanA in [3] of 32 µg/mL (≈ 132 µM). This compound yielded an MIC A4-37 S. aureus MRSA in data set [4] of under 2 µg/mL.
For `CC(C)(C)OC(=O)COc1cccc2c1[n+]([O-])c1cccc(O)c1[n+]2[O-]` [Example 5b, 1-(2-(tert-butoxy)-2-oxoethoxy)-6-hydroxyphenazine 5,10-dioxide], in [3], the MIC A1-22 E. faecium vanA stood at 8 µg/mL (≈ 22.3 µM). Besides, the MIC A4-37 S. aureus MRSA in data set [4] was under 0.5 µg/mL. Moreover, the IC50 was 1650 nM in data set [2] (setting [10]) and 1770 nM in [2] (setting [11]). Also, the concentration giving a half-maximal response (EC50) is 53 µM in data set [6] (setting [12]); 53 ± 1.5 µM in [6] (setting [13]); 42 ± 5.8 µM in data set [7] (Rattus norvegicus); 2.4 ± 0.16 µM in data set [8] (setting [14]); 2.9 ± 0.34 µM in data set [8] (setting [15]). In addition, the LogPeff in data set [9] is on record as −5.33.
Consider `COc1cccc2c1[n+]([O-])c1cccc(OC(=O)N(C)C)c1[n+]2[O-]` [Example 8m, 1-((dimethylcarbamoyl)oxy)-6-methoxyphenazine 5,10-dioxide], for which the MIC A1-22 E. faecium vanA in [3] amounted to 63 µg/mL (≈ 191 µM). This compound also returned an MIC A4-37 S. aureus MRSA in [4] of under 4 µg/mL. For the same compound, the EC50 was 29 ± 0.7 µM in data set [6] (setting [16]); 22 ± 1.7 µM in data set [6] (setting [17]); 35 ± 1.8 µM in [7]; 1.7 ± 0.09 µM in data set [8] (setting [18]); 1.9 ± 0.07 µM in [8] (setting [19]).
Compound `COc1cccc2c1[n+]([O-])c1cccc(OC(=O)N3CCCC3)c1[n+]2[O-]` [Example 8l, 1-methoxy-6-((pyrrolidine-1-carbonyl)oxy)phenazine 5,10-dioxide] came in with an MIC A1-22 E. faecium vanA in [3] of 63 µg/mL (≈ 177 µM). The MIC A4-37 S. aureus MRSA in data set [4] was under 4 µg/mL. For the same compound, the EC50 in [5] (HepG2, 24 h) was determined as 110 µM; in [6] (setting [16]) it was 35 ± 1.5 µM; in data set [6] (setting [17]), 32 ± 2.5 µM; in data set [7], 35 ± 3.3 µM; in [8] (setting [18]), 1.8 ± 0.17 µM; in [8] (setting [19]) it was 2 ± 0.11 µM.
Consider `CCN(CC)C(=O)Oc1cccc2c1[n+]([O-])c1cccc(O)c1[n+]2[O-]` [Example 8i, 1-((diethylcarbamoyl)oxy)-6-hydroxyphenazine 5,10-dioxide], for which the MIC A1-22 E. faecium vanA in data set [3] came out at 8 µg/mL (≈ 23.3 µM). This compound also had an MIC A4-37 S. aureus MRSA in data set [4] of under 4 µg/mL. The IC50 in data set [2] (MOLM-13, 24 h, read-out: Molm 13 IC50 2% O2) came to 740 nM; in data set [2] (setting [20]) it was 760 nM.
`CN1CCN(C(=O)Oc2cccc3c2[n+]([O-])c2ccccc2[n+]3[O-])CC1` [Example 8c, 1-((4-methylpiperazine-1-carbonyl)oxy)phenazine 5,10-dioxide] yielded an MIC A1-22 E. faecium vanA in data set [3] of 8 µg/mL (≈ 22.6 µM). The MIC A4-37 S. aureus MRSA in data set [4] is under 4 µg/mL. Besides, the concentration for half-maximal inhibition (IC50) in data set [2] (setting [20]) is 350 nM. In addition, the EC50 was determined as 37 ± 1.9 µM in data set [6] (setting [16]); 25 ± 0.2 µM in data set [6] (setting [17]); 36 ± 11 µM in [7]; 1.9 ± 0.05 µM in [8] (setting [18]); 1.5 ± 0.18 µM in data set [8] (setting [19]).
